Measurements from PubChem BioAssay (NCI).
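Where inhibition never reached the appropriate level, the endpoint shown equals the highest concentration tested. Otherwise, values were interpolated linearly from a five-concentration, 48-hour dose response in 96-well plates. TGI: concentration producing complete growth inhibition.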

Experiments:
Assay in all cases: growth of human tumour cells (NCI), 48 h
HCT-15 colon = tested on: HCT-15 colon
TK-10 renal = tested on: TK-10 renal
PC-3 prostate = tested on: PC-3 prostate
UO-31 renal = tested on: UO-31 renal
HCT-116 colon = tested on: HCT-116 colon
HOP-92 NSCLC = tested on: HOP-92 NSCLC
HS 578T breast = tested on: HS 578T breast
BT-549 breast = tested on: BT-549 breast
MDA-MB-435 = tested on: MDA-MB-435
ACHN renal = tested on: ACHN renal

Structure (SMILES)	TGI (HCT-15 colon)	TGI (TK-10 renal)	TGI (PC-3 prostate)	TGI (UO-31 renal)	TGI (HCT-116 colon)	TGI (HOP-92 NSCLC)	TGI (HS 578T breast)	TGI (BT-549 breast)	TGI (MDA-MB-435)	TGI (ACHN renal)
N#CC12C(=O)N3C(=NC(c4ccccc4)NC3c3ccccc3)C1(C#N)C(c1ccccc1)NC1=C2CCCC1 (centres undefined)	> 100 µM	> 100 µM	> 100 µM	> 100 µM	> 100 µM	> 100 µM	> 100 µM	> 100 µM	> 100 µM	> 100 µM
N=C(N)SCCCN	> 100 µM	20.7 µM	54.1 µM	37.5 µM	30.7 µM	> 40.6 µM	43.5 µM	> 60.9 µM	14 µM	26.5 µM
COC1=CC(=O)c2c(O)c3c(c(O)c2C1=O)C[C@](C)(O)C[C@@H]3O	15.8 µM	64.3 µM	> 42.5 µM	26.9 µM	8.94 µM	22.6 µM	81.4 µM	22.5 µM	3.34 µM	16 µM
CC(NNC(=O)c1ccncc1)c1ccc(Cl)c(Cl)c1 (centres undefined)	> 100 µM	> 100 µM	> 100 µM	> 100 µM	> 100 µM	> 100 µM	> 100 µM	> 100 µM	> 100 µM	> 100 µM
CC(=O)CC(C)(C)NC(=O)[C@@]1(O)CC[C@H]2[C@@H]3CCC4=CC(=O)CC[C@@H]4[C@H]3CC[C@@]21C	> 100 µM	> 100 µM	> 100 µM	> 100 µM	> 100 µM	> 100 µM	> 100 µM	> 100 µM	> 100 µM	> 100 µM
CCOC(=O)c1c(N2CCOCC2)[nH]c(=O)c(C(c2cccs2)c2c(O)c(C(=O)OCC)c(N3CCOCC3)[nH]c2=O)c1O	> 100 µM	> 100 µM	> 100 µM	> 100 µM	> 100 µM	> 100 µM	> 100 µM	> 100 µM	> 100 µM	> 100 µM
CCn1c2ccc(O)c(C(=O)OC)c2c2cc3ccccc3c(O)c21	56 µM	55.7 µM	78.8 µM	> 100 µM	29.2 µM	21.3 µM	45.2 µM	50.7 µM	48.3 µM	54.1 µM
O=c1[nH]c2cc3cccnc3c(Cl)c2nc1CBr	9.94 µM	61.8 µM	37.4 µM	23.6 µM	25.8 µM	35.2 µM	28.3 µM	89.8 µM	34.8 µM	20.3 µM
O=C1NC2CCCCC2N=C1/C(C(=O)c1ccccc1)=C(\O)c1ccccc1 (centres undefined)	> 100 µM	> 100 µM	> 100 µM	78.7 µM	> 100 µM	–	> 100 µM	55.3 µM	> 100 µM	> 100 µM
CNC(=S)N/N=C(\C)c1nc2ncccc2[nH]1	> 100 µM	> 96.1 µM	> 100 µM	40.6 µM	> 100 µM	> 100 µM	> 84.3 µM	99.5 µM	> 100 µM	> 100 µM
